In the kinase profiling compilation of Christmann-Franck et al. (2016):

Legend:
Test in all cases: KINOMEscan competition binding
Conditions in all cases: compound 10.0 µM
BTK (human) = BTK (human) (UniProt Q06187)
ABL2 (human) = ABL2 (human) (UniProt P42684)
INSRR (human) = INSRR (human) (UniProt P14616)
[1] = test system: RET (human), P07949 [V804M]
CDK7 (human) = CDK7 (human) (UniProt P50613)
SBK1 (human) = SBK1 (human) (UniProt Q52WX2)
STK17B (human) = STK17B (human) (UniProt O94768)
CDKL3 (human) = CDKL3 (human) (UniProt Q8IVW4)
SYK (human) = SYK (human) (UniProt P43405)
EPHB1 (human) = EPHB1 (human) (UniProt P54762)
GSK3B (human) = GSK3B (human) (UniProt P49841)
PAK6 (human) = PAK6 (human) (UniProt Q9NQU5)
CDK14 (human) = CDK14 (human) (UniProt O94921)
PRKD1 (human) = PRKD1 (human) (UniProt Q15139)
PI4KB (human) = PI4KB (human) (UniProt Q9UBF8)
HUNK (human) = HUNK (human) (UniProt P57058)
EPHA8 (human) = EPHA8 (human) (UniProt P29322)
RPS6KB1 (human) = RPS6KB1 (human) (UniProt P23443)
NTRK3 (human) = NTRK3 (human) (UniProt Q16288)
MAP2K6 (human) = MAP2K6 (human) (UniProt P52564)
TLK1 (human) = TLK1 (human) (UniProt Q9UKI8)
GAK (human) = GAK (human) (UniProt O14976)
ERBB2 (human) = ERBB2 (human) (UniProt P04626)
HIPK3 (human) = HIPK3 (human) (UniProt Q9H422)
TEK (human) = TEK (human) (UniProt Q02763)
CLK3 (human) = CLK3 (human) (UniProt P49761)
MAP3K3 (human) = MAP3K3 (human) (UniProt Q99759)
RPS6KA1 KD1 (human) = RPS6KA1 KD1 (human) (UniProt Q15418)
ERBB4 (human) = ERBB4 (human) (UniProt Q15303)
ACVR2B (human) = ACVR2B (human) (UniProt Q13705)
DYRK2 (human) = DYRK2 (human) (UniProt Q92630)
MAP2K1 (human) = MAP2K1 (human) (UniProt Q02750)
DCLK3 (human) = DCLK3 (human) (UniProt Q9C098)
MTOR (human) = MTOR (human) (UniProt P42345)
NEK6 (human) = NEK6 (human) (UniProt Q9HC98)
STK35 (human) = STK35 (human) (UniProt Q8TDR2)
PAK2 (human) = PAK2 (human) (UniProt Q13177)
AXL (human) = AXL (human) (UniProt P30530)
IGF1R (human) = IGF1R (human) (UniProt P08069)
TESK1 (human) = TESK1 (human) (UniProt Q15569)
CaMK1 (human) = CaMK1 (human) (UniProt Q14012)

STK35 (human), sequence (Q8TDR2 whole entry, looked up): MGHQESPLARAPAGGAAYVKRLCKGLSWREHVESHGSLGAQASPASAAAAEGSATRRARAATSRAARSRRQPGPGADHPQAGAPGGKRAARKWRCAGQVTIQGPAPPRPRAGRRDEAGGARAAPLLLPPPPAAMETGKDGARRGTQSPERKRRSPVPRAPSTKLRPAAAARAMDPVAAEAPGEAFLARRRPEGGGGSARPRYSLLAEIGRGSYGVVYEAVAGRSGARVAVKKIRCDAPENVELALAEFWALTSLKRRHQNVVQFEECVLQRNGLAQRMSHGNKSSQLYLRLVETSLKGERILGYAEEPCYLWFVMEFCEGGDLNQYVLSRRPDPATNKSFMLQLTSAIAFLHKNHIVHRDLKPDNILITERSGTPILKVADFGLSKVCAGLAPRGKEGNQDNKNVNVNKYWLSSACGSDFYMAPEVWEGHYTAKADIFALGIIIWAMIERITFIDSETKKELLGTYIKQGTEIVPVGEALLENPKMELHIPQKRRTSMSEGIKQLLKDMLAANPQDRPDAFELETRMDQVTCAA
EPHB1 (human), sequence (P54762 whole entry, looked up): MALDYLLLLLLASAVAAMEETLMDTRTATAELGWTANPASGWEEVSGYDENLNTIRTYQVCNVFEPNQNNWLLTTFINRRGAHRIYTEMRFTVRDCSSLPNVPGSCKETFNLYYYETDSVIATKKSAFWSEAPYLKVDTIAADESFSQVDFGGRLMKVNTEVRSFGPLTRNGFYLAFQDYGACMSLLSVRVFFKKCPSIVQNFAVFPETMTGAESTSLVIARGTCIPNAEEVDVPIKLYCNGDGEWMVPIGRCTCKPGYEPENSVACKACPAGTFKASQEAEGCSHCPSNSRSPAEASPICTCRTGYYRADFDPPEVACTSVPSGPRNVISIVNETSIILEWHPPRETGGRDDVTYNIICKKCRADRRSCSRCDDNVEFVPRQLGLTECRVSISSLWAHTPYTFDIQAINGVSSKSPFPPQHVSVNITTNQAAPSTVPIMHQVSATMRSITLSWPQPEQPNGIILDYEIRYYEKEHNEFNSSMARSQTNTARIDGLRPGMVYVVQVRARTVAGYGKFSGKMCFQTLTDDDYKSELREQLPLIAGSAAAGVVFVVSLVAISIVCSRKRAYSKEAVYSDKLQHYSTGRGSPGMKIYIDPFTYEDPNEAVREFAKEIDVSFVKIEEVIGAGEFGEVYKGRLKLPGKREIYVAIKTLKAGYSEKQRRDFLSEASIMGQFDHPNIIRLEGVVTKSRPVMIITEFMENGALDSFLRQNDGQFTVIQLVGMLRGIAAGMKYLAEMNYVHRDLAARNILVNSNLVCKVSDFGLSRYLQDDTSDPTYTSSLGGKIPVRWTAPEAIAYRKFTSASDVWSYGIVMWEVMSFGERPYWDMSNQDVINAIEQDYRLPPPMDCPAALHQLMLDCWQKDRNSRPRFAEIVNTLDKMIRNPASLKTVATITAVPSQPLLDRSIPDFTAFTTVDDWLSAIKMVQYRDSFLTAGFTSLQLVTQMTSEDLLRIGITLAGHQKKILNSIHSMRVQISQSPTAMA
GSK3B (human), sequence (P49841 whole entry, looked up): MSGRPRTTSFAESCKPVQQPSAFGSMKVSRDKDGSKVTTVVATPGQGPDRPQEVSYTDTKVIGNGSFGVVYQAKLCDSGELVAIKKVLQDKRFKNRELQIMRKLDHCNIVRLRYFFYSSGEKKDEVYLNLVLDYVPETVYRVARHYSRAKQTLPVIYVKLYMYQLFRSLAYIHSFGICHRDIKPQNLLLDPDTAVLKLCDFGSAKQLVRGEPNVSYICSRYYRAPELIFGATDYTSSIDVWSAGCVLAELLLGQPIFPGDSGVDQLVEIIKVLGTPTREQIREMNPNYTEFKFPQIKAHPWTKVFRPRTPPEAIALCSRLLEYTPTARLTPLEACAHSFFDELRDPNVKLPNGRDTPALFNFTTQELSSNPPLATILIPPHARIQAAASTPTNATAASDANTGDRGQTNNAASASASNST
RET (human), P07949 [V804M], sequence (P07949 whole entry V804M, looked up): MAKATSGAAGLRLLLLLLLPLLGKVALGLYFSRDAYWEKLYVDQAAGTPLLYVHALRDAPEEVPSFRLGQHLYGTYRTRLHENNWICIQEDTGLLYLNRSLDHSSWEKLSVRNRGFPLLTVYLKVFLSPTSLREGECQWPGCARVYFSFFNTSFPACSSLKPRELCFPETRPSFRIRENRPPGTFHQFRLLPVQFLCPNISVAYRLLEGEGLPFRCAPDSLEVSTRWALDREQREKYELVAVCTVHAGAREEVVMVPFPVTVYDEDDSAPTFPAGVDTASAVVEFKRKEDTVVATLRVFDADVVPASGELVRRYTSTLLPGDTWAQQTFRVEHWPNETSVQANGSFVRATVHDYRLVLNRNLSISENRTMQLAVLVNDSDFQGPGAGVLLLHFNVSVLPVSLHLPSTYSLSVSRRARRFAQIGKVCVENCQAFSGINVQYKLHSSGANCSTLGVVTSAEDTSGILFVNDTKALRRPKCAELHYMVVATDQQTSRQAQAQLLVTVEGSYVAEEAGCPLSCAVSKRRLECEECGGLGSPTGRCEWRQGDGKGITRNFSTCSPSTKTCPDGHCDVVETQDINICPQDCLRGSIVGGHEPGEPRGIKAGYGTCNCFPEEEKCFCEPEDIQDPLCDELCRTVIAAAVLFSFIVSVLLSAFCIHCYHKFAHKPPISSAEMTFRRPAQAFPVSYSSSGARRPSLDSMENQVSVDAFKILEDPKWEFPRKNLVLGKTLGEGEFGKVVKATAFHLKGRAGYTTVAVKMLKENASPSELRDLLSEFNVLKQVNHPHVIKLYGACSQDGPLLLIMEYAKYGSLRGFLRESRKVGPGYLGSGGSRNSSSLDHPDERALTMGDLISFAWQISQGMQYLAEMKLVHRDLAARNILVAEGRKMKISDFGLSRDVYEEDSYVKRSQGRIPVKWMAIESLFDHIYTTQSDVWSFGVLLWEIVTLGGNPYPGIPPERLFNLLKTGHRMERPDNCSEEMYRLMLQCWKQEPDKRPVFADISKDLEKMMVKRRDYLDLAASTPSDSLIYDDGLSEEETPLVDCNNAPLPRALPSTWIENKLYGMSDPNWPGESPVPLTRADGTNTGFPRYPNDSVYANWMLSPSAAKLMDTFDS
CDK7 (human), sequence (P50613 whole entry, looked up): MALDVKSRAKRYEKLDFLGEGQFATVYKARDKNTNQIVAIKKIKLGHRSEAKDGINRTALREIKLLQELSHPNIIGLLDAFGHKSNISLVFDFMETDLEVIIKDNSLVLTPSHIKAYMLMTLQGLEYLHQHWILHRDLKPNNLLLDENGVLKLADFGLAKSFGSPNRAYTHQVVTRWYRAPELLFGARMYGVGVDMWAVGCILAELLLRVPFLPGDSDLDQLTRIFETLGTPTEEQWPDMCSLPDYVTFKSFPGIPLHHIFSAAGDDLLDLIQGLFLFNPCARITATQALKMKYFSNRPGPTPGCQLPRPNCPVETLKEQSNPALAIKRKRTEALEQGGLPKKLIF
PI4KB (human), sequence (Q9UBF8 whole entry, looked up): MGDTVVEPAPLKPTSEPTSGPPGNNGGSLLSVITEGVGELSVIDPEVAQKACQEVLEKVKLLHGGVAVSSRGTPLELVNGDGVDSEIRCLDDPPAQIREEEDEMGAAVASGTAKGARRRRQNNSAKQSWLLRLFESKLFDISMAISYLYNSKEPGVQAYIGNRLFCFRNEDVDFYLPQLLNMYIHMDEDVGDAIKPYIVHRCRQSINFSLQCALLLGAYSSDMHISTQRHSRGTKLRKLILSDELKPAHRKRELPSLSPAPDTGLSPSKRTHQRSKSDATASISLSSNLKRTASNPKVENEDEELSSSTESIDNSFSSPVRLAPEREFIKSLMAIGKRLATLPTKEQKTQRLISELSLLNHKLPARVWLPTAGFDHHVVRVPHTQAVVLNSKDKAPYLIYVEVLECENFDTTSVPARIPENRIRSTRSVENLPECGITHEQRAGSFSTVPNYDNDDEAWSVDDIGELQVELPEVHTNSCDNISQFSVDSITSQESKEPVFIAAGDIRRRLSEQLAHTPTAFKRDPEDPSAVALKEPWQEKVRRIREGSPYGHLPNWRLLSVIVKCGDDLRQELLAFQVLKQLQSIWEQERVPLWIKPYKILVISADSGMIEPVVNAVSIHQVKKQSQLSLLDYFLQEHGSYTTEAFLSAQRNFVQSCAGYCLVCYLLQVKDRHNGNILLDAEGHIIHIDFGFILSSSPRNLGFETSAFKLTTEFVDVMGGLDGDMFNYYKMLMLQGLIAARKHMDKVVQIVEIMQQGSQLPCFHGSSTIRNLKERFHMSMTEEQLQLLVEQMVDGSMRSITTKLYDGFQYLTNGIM
CDKL3 (human), sequence (Q8IVW4 whole entry, looked up): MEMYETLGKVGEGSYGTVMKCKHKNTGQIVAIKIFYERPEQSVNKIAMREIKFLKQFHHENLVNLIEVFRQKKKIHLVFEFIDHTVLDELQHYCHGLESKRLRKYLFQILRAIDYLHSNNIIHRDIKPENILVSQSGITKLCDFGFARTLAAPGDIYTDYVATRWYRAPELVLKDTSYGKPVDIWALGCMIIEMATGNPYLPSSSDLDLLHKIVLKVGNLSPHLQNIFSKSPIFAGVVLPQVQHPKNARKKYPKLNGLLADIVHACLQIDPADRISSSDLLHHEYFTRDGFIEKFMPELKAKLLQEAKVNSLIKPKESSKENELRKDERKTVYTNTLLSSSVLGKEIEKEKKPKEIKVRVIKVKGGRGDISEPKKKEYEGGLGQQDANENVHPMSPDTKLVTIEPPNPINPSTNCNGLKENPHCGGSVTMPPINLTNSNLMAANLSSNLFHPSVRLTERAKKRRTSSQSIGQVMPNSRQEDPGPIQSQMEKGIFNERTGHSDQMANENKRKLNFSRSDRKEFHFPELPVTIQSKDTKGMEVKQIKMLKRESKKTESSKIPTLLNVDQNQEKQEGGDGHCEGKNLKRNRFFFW

With COc1ccc(N(C(=O)Oc2c(C)cccc2C)c2ccnc(Nc3ccc(N4CCN(C)CC4)cc3)n2)c(OC)c1 the kinase still bound, per cent of control (BTK (human)) was 1.3%, the kinase still bound, per cent of control (ABL2 (human)) was 0.1% and the kinase still bound, per cent of control (INSRR (human)) was 100%. The kinase still bound, per cent of control [1] was 66%, the kinase still bound, per cent of control (CDK7 (human)) was 100% and the kinase still bound, per cent of control (SBK1 (human)) was 100%. The kinase still bound, per cent of control (STK17B (human)) was 100%, the kinase still bound, per cent of control (CDKL3 (human)) was 0.1% and the kinase still bound, per cent of control (SYK (human)) was 1.4%. The kinase still bound, per cent of control (EPHB1 (human)) was 0%, the kinase still bound, per cent of control (GSK3B (human)) was 72% and the kinase still bound, per cent of control (PAK6 (human)) was 71%. The kinase still bound, per cent of control (CDK14 (human)) was 93%, the kinase still bound, per cent of control (PRKD1 (human)) was 9.3% and the kinase still bound, per cent of control (PI4KB (human)) was 100%. The kinase still bound, per cent of control (HUNK (human)) was 9%, the kinase still bound, per cent of control (EPHA8 (human)) was 0.2% and the kinase still bound, per cent of control (RPS6KB1 (human)) was 72%. For the same compound, the kinase still bound, per cent of control (NTRK3 (human)) was 100%, the kinase still bound, per cent of control (MAP2K6 (human)) was 66% and the kinase still bound, per cent of control (TLK1 (human)) was 45%. The kinase still bound, per cent of control (GAK (human)) was 5.6%, the kinase still bound, per cent of control (ERBB2 (human)) was 15% and the kinase still bound, per cent of control (HIPK3 (human)) was 91%. For the same compound, the kinase still bound, per cent of control (TEK (human)) was 0.3%, the kinase still bound, per cent of control (CLK3 (human)) was 88% and the kinase still bound, per cent of control (MAP3K3 (human)) was 0.75%. The kinase still bound, per cent of control (RPS6KA1 KD1 (human)) was 58%, the kinase still bound, per cent of control (ERBB4 (human)) was 0.75% and the kinase still bound, per cent of control (ACVR2B (human)) was 1.8%. It also gave a kinase still bound, per cent of control (DYRK2 (human)) of 80%, a kinase still bound, per cent of control (MAP2K1 (human)) of 38% and a kinase still bound, per cent of control (DCLK3 (human)) of 100%. The kinase still bound, per cent of control (MTOR (human)) was 100%, the kinase still bound, per cent of control (NEK6 (human)) was 96% and the kinase still bound, per cent of control (STK35 (human)) was 24%. It also gave a kinase still bound, per cent of control (PAK2 (human)) of 58%, a kinase still bound, per cent of control (AXL (human)) of 17% and a kinase still bound, per cent of control (IGF1R (human)) of 100%. For the same compound, the kinase still bound, per cent of control (TESK1 (human)) was 0% and the kinase still bound, per cent of control (CaMK1 (human)) was 83%.
Compound CN(C)C/C=C/C(=O)Nc1ccc(C(=O)Nc2cccc(Nc3nccc(-c4cccnc4)n3)c2)cc1 has a kinase still bound, per cent of control (BTK (human)) of 71%, a kinase still bound, per cent of control (ABL2 (human)) of 100% and a kinase still bound, per cent of control (INSRR (human)) of 100%. The kinase still bound, per cent of control [1] was 74%, the kinase still bound, per cent of control (CDK7 (human)) was 3.2% and the kinase still bound, per cent of control (SBK1 (human)) was 100%. It also gave a kinase still bound, per cent of control (STK17B (human)) of 19%, a kinase still bound, per cent of control (CDKL3 (human)) of 20% and a kinase still bound, per cent of control (SYK (human)) of 23%. It also gave a kinase still bound, per cent of control (EPHB1 (human)) of 100%, a kinase still bound, per cent of control (GSK3B (human)) of 67% and a kinase still bound, per cent of control (PAK6 (human)) of 46%. The kinase still bound, per cent of control (CDK14 (human)) was 98%, the kinase still bound, per cent of control (PRKD1 (human)) was 100% and the kinase still bound, per cent of control (PI4KB (human)) was 51%. The kinase still bound, per cent of control (HUNK (human)) was 69%, the kinase still bound, per cent of control (EPHA8 (human)) was 91% and the kinase still bound, per cent of control (RPS6KB1 (human)) was 100%. For the same compound, the kinase still bound, per cent of control (NTRK3 (human)) was 65%, the kinase still bound, per cent of control (MAP2K6 (human)) was 47% and the kinase still bound, per cent of control (TLK1 (human)) was 92%. It also gave a kinase still bound, per cent of control (GAK (human)) of 3.6%, a kinase still bound, per cent of control (ERBB2 (human)) of 97% and a kinase still bound, per cent of control (HIPK3 (human)) of 4.2%. It also gave a kinase still bound, per cent of control (TEK (human)) of 94%, a kinase still bound, per cent of control (CLK3 (human)) of 100% and a kinase still bound, per cent of control (MAP3K3 (human)) of 93%. For the same compound, the kinase still bound, per cent of control (RPS6KA1 KD1 (human)) was 91%, the kinase still bound, per cent of control (ERBB4 (human)) was 100% and the kinase still bound, per cent of control (ACVR2B (human)) was 98%. The kinase still bound, per cent of control (DYRK2 (human)) was 29%, the kinase still bound, per cent of control (MAP2K1 (human)) was 92% and the kinase still bound, per cent of control (DCLK3 (human)) was 100%. For the same compound, the kinase still bound, per cent of control (MTOR (human)) was 80%, the kinase still bound, per cent of control (NEK6 (human)) was 2.8% and the kinase still bound, per cent of control (STK35 (human)) was 80%. For the same compound, the kinase still bound, per cent of control (PAK2 (human)) was 76%, the kinase still bound, per cent of control (AXL (human)) was 80% and the kinase still bound, per cent of control (IGF1R (human)) was 100%. It also gave a kinase still bound, per cent of control (TESK1 (human)) of 74% and a kinase still bound, per cent of control (CaMK1 (human)) of 94%.
